Results on 44 molecules are retold here after patent publication US20250064789A1, “KETOAMIDE DERIVATIVES AND PHARMACEUTICAL USES THEREOF” (priority 2022, published 2025).

The target of the first assay is recombinant SARS-CoV-2 M^pro (Severe acute respiratory syndrome coronavirus 2 (2019-nCoV) (SARS-CoV-2), UniProt P0DTD1). As to the kind of experiment: Inhibition of SARS-CoV-2 M^pro enzyme activity (fluorescent substrate assay). It counts as biochemical. The note with it: inhibition of SARS-CoV-2 M^pro enzyme activity; values given in μM; read-out: IC50.
For the molecule `O=C(NCc1nccs1)C(=O)[C@@H](CC1CCCCC1)NC(=O)c1ccccc1` [Compound 468], the IC50 was 10.5 ± 0.63 µM.

As for `C[C@@H](NC(=O)c1cccnc1)C(=O)N[C@H](Cc1ccccc1)C(=O)C(=O)NCc1ccccn1` [Compound 142], the half-inhibitory concentration (IC50) is 1.21 ± 0.89 µM.

`O=C(CNC(=O)c1ccccn1)N[C@H](Cc1ccccc1)C(=O)C(=O)NCc1nccs1` [Compound 479]: the IC50 turned out to be 2.24 ± 0.1 µM.

For the molecule `O=C(NCc1ccco1)C(=O)[C@@H](Cc1ccccc1)NC(=O)c1ccccc1` [Compound 456], the concentration for half-maximal inhibition (IC50) was found to be 37.2 ± 0.51 µM.

With `O=C(NCc1ccccn1)C(=O)[C@@H](Cc1ccccc1)NC(=O)[C@@H]1[C@H]2CC[C@H](C2)N1C(=O)C1CCC(F)(F)CC1` [Compound 270], the IC50 was > 2.5 µM.

The assay is the same for the next values; noted with them: inhibition of SARS-CoV-2 M^pro enzyme activity; values in nM; read-out: IC50.
With `O=C(NC1(C(=O)N[C@H](Cc2ccccc2)C(=O)C(=O)NCc2ccccn2)CCC1)O[C@H]1CO[C@H]2OCC[C@H]21` [Compound 315], the IC50 stood at 0.0202 ± 0.0033 µM.

For `C[C@@H](NCC1CCC(F)(F)CC1)C(=O)N[C@H](Cc1ccccc1)C(=O)C(=O)NCc1nccs1` [Compound 554], the IC50 is 0.8901 ± 0.0013 µM.

As to `O=C(CNC(=O)C1CCC(F)(F)CC1)N[C@H](Cc1ccc(Cl)cc1)C(=O)C(=O)NCc1ccccn1` [Compound 447], the IC50 worked out at 0.1873 ± 0.0011 µM.

`C[C@@H](NC(=O)c1cc2ccccc2o1)C(=O)N[C@H](Cc1ccccc1)C(=O)C(=O)NCc1ccccn1` [Compound 72]: the IC50 came out at 0.0277 ± 0.0041 µM.

For the molecule `C[C@@H](NC(=O)c1ccc(Cl)c(F)c1)C(=O)N[C@H](Cc1ccccc1)C(=O)C(=O)NCc1ccccn1` [Compound 98], the IC50 was 0.0407 ± 0.0019 µM.

As for `C[C@@H](NC(=O)c1cc(OC(F)(F)F)ccc1F)C(=O)N[C@H](Cc1ccccc1)C(=O)C(=O)NCc1nccs1` [Compound 385], the IC50 is 0.0558 ± 0.0072 µM.

For `O=C(NCc1ccccn1)C(=O)[C@@H](Cc1ccccc1)NC(=O)C1(NC(=O)C2CC(=O)N(c3ccccc3)C2)CCC1` (some centres unmarked) [Compound 190], the IC50 was found to be 0.0296 µM.

In the case of `CC(C)(OCc1ccc(Cl)cc1)C(=O)N[C@H](Cc1ccccc1)C(=O)C(=O)NCc1ccccn1` [Compound 18], the IC50 was 0.0137 ± 0.002 µM.

On to `COC[C@@H](NC(=O)OC1CC(F)(F)C1)C(=O)N[C@H](Cc1ccccc1)C(=O)C(=O)NCc1nccs1` [Compound 553], for which the half-maximal inhibitory concentration (IC50) turned out to be 0.0188 ± 0.0046 µM.

In the case of `C[C@@H](NC(=O)C1CCC(F)(F)CC1)C(=O)N[C@H](Cc1ccco1)C(=O)C(=O)NCc1nccs1` [Compound 367], the IC50 was determined as 0.105 ± 0.0105 µM.

With `COC[C@@H](NC(=O)C1CCCC(F)(F)C1)C(=O)N[C@H](Cc1ccccc1)C(=O)C(=O)NCc1cscn1` (some centres unmarked) [Compound 544], the IC50 is 0.0225 ± 0.0009 µM.

As to `C[C@@H](NC(=O)[C@@H]1C[C@@H]2[C@H](C1)C2(F)F)C(=O)N[C@H](Cc1ccccc1)C(=O)C(=O)NCc1nccs1` [Compound 377], the IC50 was 0.08 ± 0.0036 µM.

Turning to `CC(C)C[C@@H](NC(=O)C1CCC(F)(F)CC1)C(=O)N[C@H](Cc1ccccc1)C(=O)C(=O)NCc1ccccn1` [Compound 219], the IC50 is 0.0134 ± 0.0017 µM.

`O=C(NCc1ccccn1)C(=O)[C@@H](Cc1ccccc1)NC(=O)C1(C(=O)NCc2cnccn2)CC1` [Compound 321]: the IC50 is 0.166 ± 0.0026 µM.

`CC(C)(NC(=O)CC1CCC(F)(F)CC1)C(=O)N[C@H](Cc1ccccc1)C(=O)C(=O)NCc1ccccn1` [Compound 173]: the IC50 was 0.0103 ± 0.0001 µM.

`O=C(NCc1ccccn1)C(=O)[C@@H](Cc1ccccc1)NC(=O)[C@H](NC(=O)C1CCC(F)(F)CC1)C1CCCCC1` [Compound 223]: the IC50 worked out at 0.0111 ± 0.0003 µM.

Take `N#Cc1cc(F)cc(-c2nc(CC(=O)N[C@H](Cc3ccccc3)C(=O)C(=O)NCc3nccs3)cs2)c1` [Compound 514]: the IC50 was found to be 0.0568 ± 0.0004 µM.

On to `C[C@@H](NC(=O)CCc1ccccc1)C(=O)N[C@H](Cc1ccccc1)C(=O)C(=O)NCc1ccccn1` [Compound 66], for which the IC50 is 0.0117 ± 0.0001 µM.

In the case of `CC(C)(O)[C@@H](NC(=O)C1CCC(F)(F)CC1)C(=O)N[C@H](Cc1ccccc1)C(=O)C(=O)NCc1ccccn1` [Compound 241], the IC50 was 0.0421 ± 0.0016 µM.

Take `O=C(CNC(=O)C1CCC(F)(F)C1)N[C@H](Cc1ccccc1)C(=O)C(=O)NCc1cscn1` (some centres unmarked) [Compound 429]: the half-maximal inhibitory concentration (IC50) is 0.0338 ± 0.001 µM.

`O=C(Cn1nc(-c2ccc(F)cc2)cc1C(F)(F)F)N[C@H](Cc1ccccc1)C(=O)C(=O)NCc1nccs1` [Compound 530]: the IC50 came out at 0.0325 ± 0.0011 µM.

Take `O=C(Cc1ccccc1)N[C@H](Cc1ccccc1)C(=O)C(=O)NCc1nccs1` [Compound 474]: the IC50 turned out to be 0.949 ± 0.0399 µM.

For `O=C(NC1(C(=O)N[C@H](Cc2ccccc2)C(=O)C(=O)NCc2ccccn2)CCC1)OC1CCC(F)(F)CC1` [Compound 314], the IC50 stood at 0.0124 ± 0.0003 µM.

On to `O=C(CNC(=O)C1CCOCC1)N[C@H](Cc1ccccc1)C(=O)C(=O)NCc1ccccn1` [Compound 446], for which the half-maximal inhibitory concentration (IC50) is 0.4141 ± 0.0018 µM.

With `C[C@@H](OCc1ccc(OC(F)(F)F)cc1)C(=O)N[C@H](Cc1ccccc1)C(=O)C(=O)NCc1ccccn1` [Compound 4], the IC50 was 0.0204 ± 0.0018 µM.

Consider `C[C@@H](NC(=O)[C@H]1CC[C@@H](F)CC1)C(=O)N[C@H](Cc1ccccc1)C(=O)C(=O)NCc1ccccn1` [Compound 127], for which the IC50 was 0.0408 ± 0.0006 µM.

Consider `O=C(NCc1ccccn1)C(=O)[C@@H](Cc1ccccc1)NC(=O)[C@@H]1CC(F)(F)CN1C(=O)[C@@H]1C[C@@H]2[C@H](C1)C2(F)F` [Compound 453], for which the IC50 is 0.0372 ± 0.0002 µM.

As for `O=C(NCc1ccccn1)C(=O)[C@@H](Cc1ccccc1)NC(=O)[C@H]1CC2CCCCC2N1C(=O)N1CCC(F)(F)CC1` (some centres unmarked) [Compound 309], the IC50 came to 0.0194 µM.

For the molecule `O=C(NCc1ccccn1)C(=O)[C@@H](Cc1ccccc1)NC(=O)[C@H]1CCCCN1C(=O)[C@H](NC(=O)c1cnccn1)C1CCCCC1` [Compound 284], the 50% inhibitory concentration (IC50) was 0.0144 ± 0.0002 µM.

For `O=C(NCc1cscn1)C(=O)[C@@H](Cc1ccccc1)NC(=O)[C@H]1CC(F)(F)CN1C(=O)C1CCC(F)(F)CC1` [Compound 433], the IC50 worked out at 0.7496 ± 0.0011 µM.

On to `C[C@@H](NC(=O)N1CCC(C(F)(F)F)CC1)C(=O)N[C@H](Cc1ccccc1)C(=O)C(=O)NCc1ccccn1` [Compound 297], for which the IC50 is 0.0181 ± 0.0003 µM.

For `C[C@@H](NC(=O)C1CCC(F)(F)CC1)C(=O)N[C@H](Cc1ccccc1)C(=O)C(=O)NCc1ccon1` [Compound 353], the IC50 was determined as 0.8458 ± 0.0021 µM.

Consider `CS(=O)(=O)CC[C@@H](NC(=O)CC1CC(F)(F)C1)C(=O)N[C@H](Cc1ccccc1)C(=O)C(=O)NCc1nccs1` [Compound 569], for which the IC50 is 0.0188 ± 0.0009 µM.

For the molecule `C[C@@H](NC(=O)C1CCC(F)(F)CC1)C(=O)N[C@H](Cc1ccccc1)C(=O)C(=O)NCc1cc(Cl)ccn1` [Compound 343], the IC50 came out at 0.0183 ± 0.0007 µM.

In the case of `O=C(Cn1cc(C2CCC(F)(F)CC2)c(C(F)(F)F)n1)N[C@H](Cc1ccccc1)C(=O)C(=O)NCc1nccs1` [Compound 510], the IC50 is 0.137 ± 0.0016 µM.

In the case of `C[C@@H](OCc1ccc(F)cc1)C(=O)N[C@H](Cc1ccccc1)C(=O)C(=O)NCc1ccccn1` [Compound 9], the IC50 came to 0.0121 ± 0.0025 µM.

As to `O=C(NCc1ccccn1)C(=O)[C@@H](Cc1ccccc1)NC(=O)[C@@H]1[C@H]2CCC[C@H]2CN1C(=O)NC1CCCCC1` [Compound 258], the IC50 was found to be 0.0932 ± 0.0006 µM.

Turning to `CN(CC(=O)N[C@H](Cc1ccccc1)C(=O)C(=O)NCc1ccccn1)C(=O)C1CCC(F)(F)CC1` [Compound 156], the IC50 is 0.0334 ± 0.0009 µM.

Regarding `CC(C)(NC(=O)[C@@H](NC(=O)c1cnccn1)C1CCCCC1)C(=O)N[C@H](Cc1ccccc1)C(=O)C(=O)NCc1ccccn1` [Compound 178], the IC50 stood at 0.0175 ± 0.0005 µM.

For orientation: IC50 means the concentration that inhibits the measured activity by half.
